In patent US8536097B2, “4-(4-haloalkyl-3-thiobenzoyl)pyrazoles and use thereof as herbicides” (Bayer Cropscience AG, priority 2010, dated 2013):

Experiments:
Format in all cases: in vivo
[1] = tested on: Viola tricolor; test: Pre-emergence herbicidal action against weed plants; conditions: scored after 3 to 4 weeks
Source text: (§1) Seeds or rhizome sections of mono- and dicotyledonous weed plants are set out in pots of 9 to 13 cm in diameter, in sandy loam soil, and are covered with soil. The herbicides, formulated as emulsifiable concentrates or dusts, are applied to the surface of the covering earth in the form of aqueous dispersions or suspensions or emulsions, at a water application rate of 300 to 800 I/ha (converted) in different doses. The pots are then maintained under glass under optimum conditions for the further cultivation of the plants. After 3 to 4 weeks under optimum growth conditions under glass, the trial plants are scored for the effect of the compounds according to the invention in comparison to compounds disclosed in the prior art. […] [table]

[2] = tested on: Amaranthus retroflexus; test: Post-emergence herbicidal action against weed plants; conditions: dose 320 g a.c./ha, scored after 3 to 4 weeks
Method: (§2) [table] 2. Post-Emergence Herbicidal Action Against Weed Plants Seeds of monocotyledonous and dicotyledonous weed plants are set out in cardboard pots in sandy loam soil, covered with soil, and cultivated under glass under good growth conditions. Two to three weeks after sowing, the trial plants are treated at the three-leaf stage. The compounds according to the invention, formulated as wettable powders or as emulsifiable concentrates, are sprayed onto the surface of the green parts of the plants, at a water application rate of 600 to 800 I/ha (converted). After the trial plants have stood for 3 to 4 weeks under optimum growth conditions under glass, the action of the compounds according to the invention is scored in comparison to compounds disclosed in the prior art.

[3] = tested on: Viola tricolor; test: as above; conditions: dose 320 g a.c./ha, scored after 3 to 4 weeks
Method: as §2

[4] = tested on: Alopecurus myosuroides; test: Pre-emergence herbicidal action against weed plants; conditions: dose 320 g a.c./ha, scored after 3 to 4 weeks
Source text: as §1

[5] = tested on: Cyperus serotinus; test: as above; conditions: scored after 3 to 4 weeks
Source text: as §1

[6] = tested on: Setaria viridis; test: Post-emergence herbicidal action against weed plants; conditions: dose 80 g a.c./ha, scored after 3 to 4 weeks
Method: as §2

[7] = tested on: Avena fatua; test: Pre-emergence herbicidal action against weed plants; conditions: dose 80 g a.c./ha, scored after 3 to 4 weeks
Source text: as §1

[8] = tested on: Matricaria inodora; test: Post-emergence herbicidal action against weed plants; conditions: dose 80 g a.c./ha, scored after 3 to 4 weeks
Method: as §2

Q: Which results are given for `Cc1nn(C)c(O)c1C(=O)c1ccc(C(F)(F)F)c([S+](C)[O-])c1C` (centres unmarked) [3-9, known from WO 2008/125214]?
A: Herbicidal action against VIOTR ([1]; dose 320 g a.c./ha): 40%; Herbicidal action against AMARE [2]: 50%; Herbicidal action against VIOTR [3]: 40%

Q: What does the source list for `Cc1nn(C)c(O)c1C(=O)c1ccc(C(F)(F)F)c(S(C)(=O)=O)c1C` [3-17, known from WO 2008/125214]?
A: Herbicidal action against ALOMY [4]: 50%; Herbicidal action against CYPES ([5]; dose 320 g a.c./ha): 50%; Herbicidal action against SETVI [6]: 60%

Q: What does the source list for `Cc1c(C(=O)c2cnn(C)c2O)ccc(C(F)(F)C(F)(F)F)c1[S+](C)[O-]` (centres unmarked) [1-153]?
A: Herbicidal action against VIOTR ([1]; dose 80 g a.c./ha): 90%; Herbicidal action against AVEFA [7]: 70%; Herbicidal action against CYPES ([5]; dose 80 g a.c./ha): 100%

Q: For `Cc1c(C(=O)c2cnn(C)c2O)ccc(C(F)(F)F)c1[S+](C)[O-]` (centres unmarked) [1-9, known from WO 2008/125214], which “Herbicidal action against VIOTR” value ([1]; dose 80 g a.c./ha) is on record?
A: 60%

Q: What about the “Herbicidal action against AVEFA” value [7] of the same compound?
A: 40%

Q: What about the “Herbicidal action against CYPES” value ([5]; dose 80 g a.c./ha) of the same compound?
A: 50%

Q: Which “Herbicidal action against ALOMY” value [4] does the source give for `Cc1nn(C)c(O)c1C(=O)c1ccc(C(F)(F)C(F)(F)F)c(S(C)(=O)=O)c1C` [3-161] here?
A: 90%

Q: What about the “Herbicidal action against CYPES” value ([5]; dose 320 g a.c./ha) of the same compound?
A: 80%

Q: And the “Herbicidal action against SETVI” value [6]?
A: 100%

Q: With `Cc1c(C(=O)c2cnn(C)c2O)ccc(C(F)(F)F)c1S(C)(=O)=O` [1-4, known from WO 2008/125214] as the compound, how does the “Herbicidal action against MATIN” value [8] read?
A: 50%

Q: How did the “Herbicidal action against VIOTR” value ([1]; dose 320 g a.c./ha) turn out when `Cc1nn(C)c(O)c1C(=O)c1ccc(C(F)(F)C(F)(F)F)c([S+](C)[O-])c1C` (centres unmarked) [3-153] was run?
A: 90%

Q: What about the “Herbicidal action against AMARE” value [2] of the same compound?
A: 80%

Q: And the “Herbicidal action against VIOTR” value [3]?
A: 80%

Q: How did the “Herbicidal action against MATIN” value [8] turn out when `Cc1c(C(=O)c2cnn(C)c2O)ccc(C(F)(F)C(F)(F)F)c1S(C)(=O)=O` [1-161] was run?
A: 100%
